Laboratory results reported in ChEMBL document CHEMBL1201862, “PubChem BioAssay data set” (2004).
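Briefly, cells in 96-well plates were exposed to five compound concentrations for 48 h, and endpoints were estimated by linear interpolation. At the GI50, growth is halved.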 Activity calls are given as the source filed them. No stated cut-off is given here; in the data, active = GI50 up to about 1.1 µM and inactive = higher.

Tests used:
Test in all cases: inhibition of tumour cell growth, NCI panel, 48 h
IGROV-1 = system: IGROV-1
MCF7 = system: MCF7
HOP-18 = system: HOP-18
A549 = system: A549
DU-145 = system: DU-145
ACHN = system: ACHN
SF-268 = system: SF-268
DMS-273 = system: DMS-273
LOX IMVI = system: LOX IMVI
RXF 393 = system: RXF 393
M14 = system: M14
HCT-15 = system: HCT-15
COLO 205 = system: COLO 205
UO-31 = system: UO-31
SN12C = system: SN12C
A498 = system: A498
OVCAR-8 = system: OVCAR-8
RPMI-8226 = system: RPMI-8226
TK-10 = system: TK-10
SNB-78 = system: SNB-78
PC-3 = system: PC-3
SW-620 = system: SW-620
OVCAR-3 = system: OVCAR-3
KM-20L2 = system: KM-20L2
UACC-257 = system: UACC-257
MOLT-4 = system: MOLT-4
HOP-62 = system: HOP-62
Hs-578T = system: Hs-578T
U-251 = system: U-251
MDA-MB-231 = system: MDA-MB-231
KM12 = system: KM12
MDA-N = system: MDA-N
NCI-H226 = system: NCI-H226
SR = system: SR
HCT-116 = system: HCT-116
SNB-75 = system: SNB-75
SNB-19 = system: SNB-19
UACC-62 = system: UACC-62
Malme-3M = system: Malme-3M
EKVX = system: EKVX
HOP-92 = system: HOP-92
NCI-H522 = system: NCI-H522
HL-60 = system: HL-60
SK-OV-3 = system: SK-OV-3
SK-MEL-5 = system: SK-MEL-5
LXFL 529 = system: LXFL 529
M19-MEL = system: M19-MEL
OVCAR-4 = system: OVCAR-4
K562 = system: K562
SK-MEL-28 = system: SK-MEL-28
BT-549 = system: BT-549
RXF 631 = system: RXF 631
SF-539 = system: SF-539
786-0 = system: 786-0
DLD-1 = system: DLD-1
SK-MEL-2 = system: SK-MEL-2
CCRF-CEM = system: CCRF-CEM
HT-29 = system: HT-29
XF498 = system: XF498
NCI-H23 = system: NCI-H23
OVCAR-5 = system: OVCAR-5
HCC 2998 = system: HCC 2998
T47D = system: T47D
SF-295 = system: SF-295
NCI-H460 = system: NCI-H460
DMS-114 = system: DMS-114

Measured: GI50

Oc1cc(-c2ccccc2)nc2cc3c(cc12)OCO3
18.8 µM: HCT-15
inactive: IGROV-1 13.6 µM | MCF7 36.8 µM | HOP-18 > 100 µM | A549 14 µM | DU-145 79.4 µM | ACHN 15.2 µM | SF-268 3.83 µM | DMS-273 11.7 µM | LOX IMVI 11.6 µM | RXF 393 5.69 µM | M14 7.36 µM | COLO 205 6.21 µM | UO-31 13.1 µM | SN12C 12.8 µM | A498 15.1 µM | OVCAR-8 14.5 µM | RPMI-8226 11 µM | TK-10 39 µM | SNB-78 3.72 µM | PC-3 30.2 µM | SW-620 6.15 µM | OVCAR-3 10 µM | KM-20L2 7.35 µM | UACC-257 44.5 µM | MOLT-4 15.1 µM | HOP-62 9.55 µM | Hs-578T 24.5 µM | U-251 29.2 µM | MDA-MB-231 85.5 µM | KM12 1.54 µM | MDA-N 4.11 µM | NCI-H226 11.8 µM | SR 3.36 µM | HCT-116 8 µM | SNB-75 2.6 µM | SNB-19 20 µM | UACC-62 5.52 µM | Malme-3M 3.76 µM | EKVX 15.6 µM | HOP-92 3.98 µM | NCI-H522 3.93 µM | HL-60 4.11 µM | SK-OV-3 6.92 µM | SK-MEL-5 3.52 µM | LXFL 529 1.82 µM | M19-MEL 3.21 µM | OVCAR-4 > 97.3 µM | K562 4.06 µM | SK-MEL-28 6.75 µM | BT-549 40.8 µM | RXF 631 2.9 µM | SF-539 6.05 µM | 786-0 9.95 µM | DLD-1 6.56 µM | SK-MEL-2 19.5 µM | CCRF-CEM 12.2 µM | HT-29 7.18 µM | XF498 26.9 µM | NCI-H23 8.55 µM | OVCAR-5 > 84.3 µM | HCC 2998 15.6 µM | T47D 42.1 µM | SF-295 8.57 µM | NCI-H460 7.87 µM

O=C1C(c2ccc(Cl)cc2)=[N+]([O-])c2ccccc21
11.4 µM: HCT-15
inactive: IGROV-1 18.1 µM | HOP-18 21.8 µM | A549 17.5 µM | ACHN 15.2 µM | SF-268 15.4 µM | LOX IMVI 14 µM | RXF 393 11 µM | M14 14.2 µM | COLO 205 17.7 µM | UO-31 > 100 µM | SN12C 18.1 µM | A498 24.7 µM | OVCAR-8 10.7 µM | RPMI-8226 14.9 µM | TK-10 16.3 µM | SW-620 39.7 µM | OVCAR-3 13.6 µM | KM-20L2 25.4 µM | UACC-257 16 µM | MOLT-4 12.4 µM | HOP-62 29.4 µM | U-251 16.7 µM | KM12 15.2 µM | NCI-H226 19.1 µM | SR 20.2 µM | HCT-116 14.4 µM | SNB-75 21.4 µM | SNB-19 23.3 µM | UACC-62 18.3 µM | Malme-3M 17.8 µM | EKVX 15.3 µM | NCI-H522 10 µM | HL-60 3.3 µM | SK-OV-3 > 100 µM | SK-MEL-5 13.6 µM | LXFL 529 5.36 µM | M19-MEL > 100 µM | K562 13.4 µM | SK-MEL-28 14.9 µM | RXF 631 23.6 µM | SF-539 21 µM | 786-0 16.9 µM | DLD-1 13.8 µM | SK-MEL-2 23.1 µM | CCRF-CEM 4.36 µM | HT-29 19.8 µM | DMS-114 4.07 µM | XF498 20.4 µM | NCI-H23 16.1 µM | OVCAR-5 22.9 µM | HCC 2998 > 100 µM | SF-295 12.1 µM | NCI-H460 18.8 µM
